From patent publication US9487553B2, “Boranophosphate analogues of cyclic nucleotides” (BIOLOG LIFE SCIENCE INSTITUTE FORSCHUNGSLABOR UND …, priority 2011, dated 2016)
pEC50: −log10 of the molar value.

Legend:
[1] = Degradation Example 6: oxidation with hydrogen peroxide, monitored by HPLC; format: physicochemical; settings: after 1 hour at RT
Protocol: Thus, 0.1 μmol of the cyclic boranophosphate 2-chloroadenosine-3′,5′-cyclic boranophosphate, Sp-isomer (Sp-2-Cl-cAMPB, example 71) and 0.1 μmol of the corresponding phosphorothioate 2-chloroadenosine-3′,5′-cyclic phosphorothioate, Rp-isomer (Rp-2-Cl-cAMPS, Biolog) as a control, were each dissolved in 100 μl of water, combined and treated with 10 μl of 30% aqueous hydrogen peroxide (Merck), and another 10 μl after one hour. During 2.5 hours, oxidative degradation was monitored by HPLC (RP-18, 15 Vol.-% acetonitrile, 20 mM triethylammonium formate buffer, pH 6.5, 1.5 ml/min., UV 262 nm). Corresponding peak areas were recorded, integrated and compared (Tab. 5).

[2] = Degradation Example 4: oxidation with hydrogen peroxide, monitored by HPLC; format: physicochemical; settings: after 3 hours at RT
Protocol: As a control, the corresponding cyclic nucleotide with phosphorothioate modification (Rp-8-BT-2′-O-Me-cAMPS, Biolog) had been added. The oxidation process was monitored by reversed phase HPLC (RP-18, 30 Vol.-% acetonitrile, 20 mM triethylammonium formate buffer, pH 8.3, 2 ml/min, UV 282 nm). The areas of both peaks were recorded, integrated and compared (Tab. 2).

[3] = system: PDE type I from bovine brain; experiment: Resistance towards phosphodiesterase: incubation with PDE type I from bovine brain, HPLC; settings: PDE type I from bovine brain, 37° C., up to 8 days
Protocol: Activity of the enzyme was checked by hydrolysis of cyclic AMP. Stability was monitored by HPLC (RP-18, 11 Vol.-% propanol-2, 20 mM TEAF buffer, pH 6.8, 1 ml/min., UV 264 nm).

[4] = target: protein kinase A type I alpha holoenzyme (Homo sapiens, UniProt P10644); experiment: Standard photometric (Cook) assay with protein kinase A type I alpha holoenzyme; format: biochemical; settings: holoenzyme RIα
Description: In a first experiment, the biological activity of the Rp- and Sp-isomer of 8-bromoadenosine-3′,5′-cyclic boranophosphate (examples 1 and 2) has been tested with the holoenzyme of protein kinase A type I alpha (FIGS. 3 and 4) using a standard photometric assay (Cook, P. F.; Neville, M. E., Jr.; Vrana, K. E.; Hartl, F. T. and Roskoski, R., Jr., Biochemistry 21, 5794-5799 (1982)).
As a control, two boranophosphate analogues with a 2′-O-methyl modification (Rp-2′-O-Me-cAMPB and Sp-2′-O-Me-cAMPB, examples 7 & 8) have been tested by the same type of assay with protein kinase A type I alpha as well.
FIG. 5 depicts the activity overview of four different cyclic boranophosphate analogues with protein kinase A type I alpha holoenzyme. 9108: Sp-2′-O-Me-cAMPB; 9109: Rp-2′-O-Me-cAMPB; 9110: Sp-8-Br-cAMPB; 9111: Rp-8-Br-cAMPB; controls: B 001: Rp-8-Br-cAMPS. Control: cAMP. “Cook Assay” with Holoenzyme RIα.

[5] = target: T1, PDE IV (A4B) (Homo sapiens, UniProt P27815); experiment: Stability against PDE IV, HPLC; format: in vitro ADME; settings: several days
T1 construct: Houslay lab, Glasgow/Scotland (obtained from another laboratory)
Protocol: Next, stability of the disclosed boranophosphates against PDE IV (A4B, Houslay lab, Glasgow/Scotland) was tested in similar experiments as described above.

[6] = system: PDE 1 from bovine heart; experiment: Resistance towards phosphodiesterase: incubation with PDE 1 from bovine heart, HPLC; settings: PDE 1 from bovine heart, up to 8 days of incubation
Protocol: (§1) For this purpose 0.1 μmol of Rp-8-bromoadenosine-3′,5′-cyclic boranophosphate (example 1) and Sp-8-bromoadenosine-3′,5′-cyclic boranophosphate […] dissolved in TRIS buffer pH 7.2 containing calcium chloride and calmodulin and incubated with PDE type I from bovine brain (Sigma-Aldrich) at 37° C. Activity of the enzyme was checked by hydrolysis of cyclic AMP. Stability was monitored by HPLC (RP-18, 11 Vol.-% propanol-2, 20 mM TEAF buffer, pH 6.8, 1 ml/min., UV 264 nm). […] This strategy of testing PDE performance was applied accordingly in degradation examples 10 and 11.
(§2) Thus, Rp-8-Br-cAMPB (example 1) and Sp-8-Br-cAMPS (Biolog, Bremen/Germany) were incubated with PDE 1 from bovine heart (Sigma-Aldrich) and monitored by HPLC as described above.
(§3) Rp-2′-O-Me-cAMPB (example 7) and Sp-2′-O-Me-cAMPS (Biolog, Bremen/Germany).

[7] = Degradation Example 8: oxidation with hydrogen peroxide, monitored by HPLC; format: physicochemical; settings: after 1 hour at RT
Protocol: Finally, with the Sp-isomer of 8-bromoguanosine-3′,5′-cyclic boranophosphate (Sp-8-Br-cGMPB, example 6) also the oxidative stability of a cyclic boranophosphate with a modified guanine nucleobase was investigated and again compared to the corresponding phosphorothioate Rp-8-bromoguanosine-3′,5′-cyclic phosphorothioate (Rp-8-Br-cGMPS, Biolog).
Both compounds were treated together with two 10 μl doses of 30% aqueous hydrogen peroxide (Merck). During more than four hours, oxidative degradation was monitored by HPLC (RP-18, 15 Vol.-% acetonitrile, 20 mM triethylammonium formate buffer, pH 6.5, 1.5 ml/min., UV 263 nm) and corresponding peak areas were recorded and compared (Tab. 7).

[8] = target: protein kinase A type II alpha holoenzyme (Homo sapiens, UniProt P13861); experiment: Photometric (Cook) assay with protein kinase A type II alpha holoenzyme; format: biochemical; settings: activation of protein kinase A type II; data not shown
Description: In another similar experiment the properties of Rp- and Sp-8-Br-cAMPB towards protein kinase A type II a were investigated in the photometric assay (Cook, P. F., Neville, M. E., Jr., Vrana, K. E., Hartl, F. T. and Roskoski, R., Jr., Biochemistry 21, 5794-5799 (1982))

[9] = system: PDE 1; experiment: Resistance towards phosphodiesterase: incubation with PDE 1 from bovine heart, HPLC; settings: bovine, pH 7.2
Protocol: as §1, §2, §3

[10] = target: T2, protein kinase G type I α, activated by cGMP (Homo sapiens, UniProt Q13976); experiment: Suppression of cGMP-stimulated protein kinase G type I alpha activity; format: biochemical; settings: 10 nM, 100 nM and 1 μM; cGMP 200 nM
T2 sequence (Q13976 1-671): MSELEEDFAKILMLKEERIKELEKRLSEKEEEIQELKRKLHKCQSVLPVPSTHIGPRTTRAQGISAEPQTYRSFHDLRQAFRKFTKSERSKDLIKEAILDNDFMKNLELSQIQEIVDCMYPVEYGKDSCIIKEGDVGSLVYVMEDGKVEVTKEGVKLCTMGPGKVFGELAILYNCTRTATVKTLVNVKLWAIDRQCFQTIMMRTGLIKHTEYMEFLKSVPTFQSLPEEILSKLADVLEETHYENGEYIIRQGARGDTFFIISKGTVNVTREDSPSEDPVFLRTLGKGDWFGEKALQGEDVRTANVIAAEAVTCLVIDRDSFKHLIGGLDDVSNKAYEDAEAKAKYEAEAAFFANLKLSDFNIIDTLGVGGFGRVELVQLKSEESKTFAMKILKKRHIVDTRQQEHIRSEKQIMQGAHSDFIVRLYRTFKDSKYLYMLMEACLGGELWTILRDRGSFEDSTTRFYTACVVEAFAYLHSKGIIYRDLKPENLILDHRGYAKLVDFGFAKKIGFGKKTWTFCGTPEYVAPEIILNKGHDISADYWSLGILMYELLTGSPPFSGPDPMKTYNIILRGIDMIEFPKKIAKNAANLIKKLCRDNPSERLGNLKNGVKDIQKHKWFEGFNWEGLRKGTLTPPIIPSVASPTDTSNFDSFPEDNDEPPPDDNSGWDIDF

protein kinase A type I alpha holoenzyme, sequence (P10644 whole entry): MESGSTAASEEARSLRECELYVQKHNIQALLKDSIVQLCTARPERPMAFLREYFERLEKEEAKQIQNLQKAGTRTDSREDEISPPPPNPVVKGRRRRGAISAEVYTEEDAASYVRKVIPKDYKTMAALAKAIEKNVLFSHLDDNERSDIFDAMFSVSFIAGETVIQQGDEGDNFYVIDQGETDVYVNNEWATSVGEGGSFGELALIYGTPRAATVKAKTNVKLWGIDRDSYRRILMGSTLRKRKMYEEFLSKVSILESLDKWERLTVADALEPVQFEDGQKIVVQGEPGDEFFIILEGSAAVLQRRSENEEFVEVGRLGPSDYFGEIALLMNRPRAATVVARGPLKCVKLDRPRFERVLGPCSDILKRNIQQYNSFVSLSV
protein kinase A type II alpha holoenzyme, sequence (P13861 whole entry): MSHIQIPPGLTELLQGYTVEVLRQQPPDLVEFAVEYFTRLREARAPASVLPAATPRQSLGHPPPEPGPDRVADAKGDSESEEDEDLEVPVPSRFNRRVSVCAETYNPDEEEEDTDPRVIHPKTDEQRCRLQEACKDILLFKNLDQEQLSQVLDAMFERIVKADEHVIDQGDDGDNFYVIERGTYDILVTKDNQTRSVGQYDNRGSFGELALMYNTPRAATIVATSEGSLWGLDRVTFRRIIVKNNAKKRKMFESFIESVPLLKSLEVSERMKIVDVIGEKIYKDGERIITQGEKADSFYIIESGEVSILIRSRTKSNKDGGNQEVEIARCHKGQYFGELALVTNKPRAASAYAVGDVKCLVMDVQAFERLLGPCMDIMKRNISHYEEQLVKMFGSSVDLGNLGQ
T1 sequence (P27815 whole entry): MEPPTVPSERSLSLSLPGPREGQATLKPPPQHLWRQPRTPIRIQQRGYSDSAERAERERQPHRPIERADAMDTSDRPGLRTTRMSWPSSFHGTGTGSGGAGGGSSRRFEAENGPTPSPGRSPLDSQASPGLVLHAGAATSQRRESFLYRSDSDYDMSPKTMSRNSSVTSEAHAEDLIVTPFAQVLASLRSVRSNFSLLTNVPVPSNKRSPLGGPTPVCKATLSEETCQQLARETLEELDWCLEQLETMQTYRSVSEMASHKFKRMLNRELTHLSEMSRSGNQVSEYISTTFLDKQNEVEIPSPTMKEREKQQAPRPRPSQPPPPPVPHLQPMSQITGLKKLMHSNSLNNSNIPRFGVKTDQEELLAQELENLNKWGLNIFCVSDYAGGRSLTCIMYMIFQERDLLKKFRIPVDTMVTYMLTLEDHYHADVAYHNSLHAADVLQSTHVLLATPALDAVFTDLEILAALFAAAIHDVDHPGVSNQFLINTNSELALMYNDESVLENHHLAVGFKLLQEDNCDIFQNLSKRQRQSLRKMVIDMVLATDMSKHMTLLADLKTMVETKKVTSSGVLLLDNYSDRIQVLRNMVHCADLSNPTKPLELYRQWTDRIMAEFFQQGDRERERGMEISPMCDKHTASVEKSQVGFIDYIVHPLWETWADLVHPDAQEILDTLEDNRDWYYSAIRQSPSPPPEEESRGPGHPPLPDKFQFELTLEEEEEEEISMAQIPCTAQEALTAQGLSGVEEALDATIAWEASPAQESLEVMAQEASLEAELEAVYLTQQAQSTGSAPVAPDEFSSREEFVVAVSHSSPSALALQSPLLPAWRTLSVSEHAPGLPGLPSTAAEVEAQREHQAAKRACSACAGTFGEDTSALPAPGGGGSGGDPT

## 2-Chloroadenosine-3′,5′-cyclic boranophosphate, Rp-isomer [Rp-2-Cl-cAMPB]
[1]
  peak area, % of the original area: 90%

## 8-Benzylthio-2′-O-methyladenosine-3′,5′-cyclic boranophosphate, SP-isomer [Sp-8-BT-2′-O-Me-cAMPB]
[2]
  peak area, % of the original area: 73%

## Nc1nc(Cl)nc2c1ncn2[C@@H]1O[C@@H]2COP(O)(=S)OC2[C@@H]1O (single isomer, unassigned) [Rp-2-Cl-cAMPS, 2-chloroadenosine-3′,5′-cyclic phosphorothioate, Rp-isomer, reference compound]
[1]
  degraded: 22%

## B[PH]1(O)OC[C@H]2O[C@@H](n3cnc4c(N)ncnc43)C(OC)[C@@H]2O1 (stereo partly drawn) [Rp-2′-O-Me-cAMPB, 2′-O-Methyladenosine-3′,5′-cyclic boranophosphate, Rp-isomer]
[3]
  degradation by PDE: stable over the whole assay period
[4]
  effect on protein kinase A type I alpha holoenzyme: neither Rp- nor Sp-2′-O-Me-cAMPB did modulate the kinase in any way
[5]
  stability against PDE IV: completely stable
[6]
  degradation by PDE: stable over the whole assay period

## Nc1nc2c(nc(Br)n2[C@@H]2O[C@@H]3COP(O)(=S)O[C@H]3[C@H]2O)c(=O)[nH]1 (stereo partly drawn) [Rp-8-Br-cGMPS, Rp-8-bromoguanosine-3′,5′-cyclic phosphorothioate, reference compound]
[7]
  degraded: 15%

## Nc1ncnc2c1nc(Br)n2C1OC2COP(O)(=S)OC2C1O (stereo not drawn) [Sp-8-Br-cAMPS, Sp-8-bromoadenosine-3′,5′-cyclic phosphorothioate, reference compound]
[8]
  pEC50: 6.15
[9]
  half-life: ~50 h

## B[PH]1(O)OC[C@H]2O[C@@H](n3c(Br)nc4c(=O)[nH]c(N)nc43)C(O)[C@@H]2O1 (stereo partly drawn) [Sp-8-Br-cGMPB, 8-Bromoguanosine-3′,5′-cyclic boranophosphate, Sp-isomer]
[7]
  peak area, % of the original area: 65%
[10]
  antagonism of protein kinase G: showed antagonistic potential
